# Assay results: patent US9113629B2, “4-amino-6-(4-substituted-phenyl)-picolinates and 6-amino-2-(4-substituted-phenyl)-pyrimidine-4-carboxylates and their use as herbicides” (DOW AGROSCIENCES LLC, priority 2013, dated 2015)
# Like-named read-outs stand apart in the source and are kept apart here.
# Tests used:
# [1] = test system: Key Grass and Sedge Weeds as well as Grass Crops; assay: Post-emergent Test II herbicidal activity (Table 6); assay type: in vivo; conditions: post-emergence, 336 h; for pest or weed control at 70 g/ha: 70 g ai/ha; for pest or weed control at 140 g/ha: 140 g ai/ha
# Procedure, shortened: (§1)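 Plants grown in Metro-Mix 360 (pH 6.0–6.8) in a greenhouse (~15 h photoperiod, 23–29 °C day) to first or second true leaf stage, then sprayed with compound in acetone/DMSO/aqueous crop-oil-surfactant carrier at 187 L/ha by track sprayer. Injury visually scored 0–100% versus untreated plants after 14 d.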
# [2] = test system: Key Broadleaf Weed and Crop Species; assay: Post-emergent Test II herbicidal activity (Table 5); assay type: in vivo; conditions: post-emergence, 336 h, 14 days after application; for pest or weed control at 70 g/ha: application rate 70 g ai/ha; for pest or weed control at 140 g/ha: application rate 140 g ai/ha
# Procedure, shortened: as §1
# [3] = CYPES: yellow nutsedge (Cyperus esculentus), read-out: Visual Growth Reduction (%) 14 Days After Application, CYPES
# [4] = DIGSA: crabgrass (Digitaria sanguinalis), read-out: Visual Growth Reduction (%) 14 Days After Application, DIGSA
# [5] = ECHCG: barnyardgrass (Echinochloa crus-galli), read-out: Visual Growth Reduction (%) 14 Days After Application, ECHCG
# [6] = ORYSA: rice (Oryza sativa), crop, read-out: Visual Growth Reduction (%) 14 Days After Application, ORYSA
# [7] = SETFA: giant foxtail (Setaria faberi), read-out: Visual Growth Reduction (%) 14 Days After Application, SETFA
# [8] = SORVU: grain sorghum (Sorghum vulgare), read-out: Visual Growth Reduction (%) 14 Days After Application, SORVU
# [9] = TRZSS (wheat, Triticum aestivum), crop, read-out: Visual Growth Reduction (%) 14 Days After Application, TRZSS
# [10] = ZEAMX: maize, corn (Zea mays), crop, read-out: Visual Growth Reduction (%) 14 Days After Application, ZEAMX
# [11] = ABUTH: velvetleaf (Abutilon theophrasti), read-out: Visual Growth Reduction (%) 14 Days After Application, ABUTH
# [12] = AMARE: redroot pigweed (Amaranthus retroflexus), read-out: Visual Growth Reduction (%) 14 Days After Application, AMARE
# [13] = BRSNN: oilseed-rape, canola (Brassica napus), read-out: Visual Growth Reduction (%) 14 Days After Application, BRSNN
# [14] = CHEAL: lambsquarters (Chenopodium album), read-out: Visual Growth Reduction (%) 14 Days After Application, CHEAL
# [15] = EPHHL: wild poinsettia (Euphorbia heterophylla), read-out: Visual Growth Reduction (%) 14 Days After Application, EPHHL
# [16] = HELAN: sunflower (Helianthus annuus), read-out: Visual Growth Reduction (%) 14 Days After Application, HELAN
# [17] = VIOTR: wild pansy (Viola tricolor), read-out: Visual Growth Reduction (%) 14 Days After Application, VIOTR
structure (smiles),measurement,setting,value
COC(=O)c1nc(-c2ccc(OC(F)F)cc2)c(F)c(N)c1Cl [Compound 85],pest or weed control at 70 g/ha,[1]; [3],85 to 94%
same,pest or weed control at 140 g/ha,[1]; [3],85 to 94%
same,pest or weed control at 70 g/ha,[1]; [4],30 to 44%
same,pest or weed control at 140 g/ha,[1]; [4],30 to 44%
same,pest or weed control at 70 g/ha,[1]; [5],95 to 100%
same,pest or weed control at 140 g/ha,[1]; [5],95 to 100%
same,pest or weed control at 70 g/ha,[1]; [6],0 to 29%
same,pest or weed control at 140 g/ha,[1]; [6],0 to 29%
same,pest or weed control at 70 g/ha,[1]; [7],45 to 59%
same,pest or weed control at 140 g/ha,[1]; [7],75 to 84%
same,pest or weed control at 70 g/ha,[1]; [8],75 to 84%
same,pest or weed control at 140 g/ha,[1]; [8],85 to 94%
same,pest or weed control at 70 g/ha,[1]; [9],30 to 44%
same,pest or weed control at 140 g/ha,[1]; [9],30 to 44%
same,pest or weed control at 70 g/ha,[1]; [10],75 to 84%
same,pest or weed control at 140 g/ha,[1]; [10],75 to 84%
same,pest or weed control at 70 g/ha,[2]; [11],95 to 100%
same,pest or weed control at 140 g/ha,[2]; [11],95 to 100%
same,pest or weed control at 70 g/ha,[2]; [12],95 to 100%
same,pest or weed control at 140 g/ha,[2]; [12],95 to 100%
same,pest or weed control at 70 g/ha,[2]; [13],45 to 59%
same,pest or weed control at 140 g/ha,[2]; [13],60 to 74%
same,pest or weed control at 70 g/ha,[2]; [14],85 to 94%
same,pest or weed control at 140 g/ha,[2]; [14],95 to 100%
same,pest or weed control at 70 g/ha,[2]; [15],95 to 100%
same,pest or weed control at 140 g/ha,[2]; [15],95 to 100%
same,pest or weed control at 70 g/ha,[2]; [16],85 to 94%
same,pest or weed control at 140 g/ha,[2]; [16],95 to 100%
same,pest or weed control at 70 g/ha,[2]; [17],0 to 29%
same,pest or weed control at 140 g/ha,[2]; [17],0 to 29%
